Source: patent US12577213B2 (NINGBO COMBIREG PHARMACEUTICAL TECHNOLOGY CO., LTD., priority 2020, dated 2026)
Like-named read-outs stand apart in the source and are kept apart here.

Legend:
K562 (leukemia) = experiment: NCI method SRB growth inhibition, K562; type: cell-based; details: Homo sapiens; K562, treated 48 hours, SRB stain
Excerpt: (§1) In this embodiment, the method of National Cancer Institute (NCI) was used to evaluate the anti-tumor activity of the embodiment compounds in the present disclosure. Nine representative cell lines were selected for activity evaluation, including A549 (non-small cell lung cancer), HCT116 (colon cancer), SF295 (central nervous system tumor), LOX-IMVI (melanoma), 786-0 (renal cancer), K562 (leukemia), PC-3 (prostate cancer), OVCAR-3 (ovarian cancer) and HS 578T (breast cancer).
(§2) The specific method was as follows: 60 tumor cell lines of 9 kinds of human cancers were used to evaluate the inhibitory activity of the compound in vitro. A test group, a parallel control group and a vehicle control group were set up. The parallel control group was fixed immediately before the compound was added; the cells in the test group were fixed after being treated with the compound for 48 hours; the vehicle control group was fixed after an equal volume of complete medium was added for 48 hours. Sulforhodamine B (SRB) was used to stain, and the OD value was measured at a wavelength of 515 nm. The specific calculation method was as follows: the OD value of the parallel control group was recorded as Tz, the OD value of the vehicle control group was recorded as C, and the OD value of the test group was recorded as (Ti). If Ti≥Tz, it means that the cells still grow after the drug was added, and the growth rate %=[(Ti−Tz)/(C−Tz)]×100; if Ti<Tz, it means that the cells are killed after the drug was added, and the growth rate %=[(Ti−Tz)/Tz]×100. Three parameters were used to evaluate the anti-tumor activity of compounds in this method: 50% growth inhibitory concentration (GI50): i.e. the compound concentration at [(Ti−Tz)/(C−Tz)]×100=50; complete growth inhibitory concentration (TGI): the compound concentration at Ti=Tz; the drug concentration required to kill 50% of the cells (LC50): i.e. the compound concentration at [(Ti−Tz)/Tz]×100=−50.
(§3) The inhibitory activities of the embodiment compounds on nine representative tumor cell lines were listed in detail in Table 1. Wherein, the GI50 value means “50% growth inhibition rate”, that is, the concentration of the compound to be tested when it can inhibit […] of cell growth; “ND” means not detected.

PC-3 (prostate cancer) = experiment: NCI method SRB growth inhibition, PC-3; type: cell-based; details: Homo sapiens; PC-3, treated 48 hours, SRB stain
Excerpt: as §1, §2, §3

OVCAR-3 (ovarian cancer) = experiment: NCI method SRB growth inhibition, OVCAR-3; type: cell-based; details: Homo sapiens; OVCAR-3, treated 48 hours, SRB stain
Excerpt: as §1, §2, §3

786-0 (renal cancer) = experiment: NCI method SRB growth inhibition, 786-0; type: cell-based; details: Homo sapiens; 786-0, treated 48 hours, SRB stain
Excerpt: as §1, §2, §3

LOX-IMVI (melanoma) = experiment: NCI method SRB growth inhibition, LOX-IMVI; type: cell-based; details: Homo sapiens, treated 48 hours, SRB stain
Excerpt: as §1, §2, §3

HCT116 (colon cancer) = experiment: NCI method SRB growth inhibition, HCT116; type: cell-based; details: Homo sapiens, HCT-116; HCT116, treated 48 hours, SRB stain
Excerpt: as §1, §2, §3

[1] = system: SF295 (central nervous system tumor); experiment: NCI method SRB growth inhibition, SF295; type: cell-based; details: Homo sapiens, SF-295; SF295, treated 48 hours, SRB stain
Excerpt: as §1, §2, §3

[2] = system: A549 (non-small cell lung cancer); experiment: NCI method SRB growth inhibition, A549; type: cell-based; details: Homo sapiens; A549, treated 48 hours, SRB stain
Excerpt: as §1, §2, §3

HS 578T (breast cancer) = experiment: NCI method SRB growth inhibition, HS 578T; type: cell-based; details: Homo sapiens, HS578T, treated 48 hours, SRB stain
Excerpt: as §1, §2, §3

[3] = Liver microsomes stability; type: in vitro ADME, human; details: 1 μM compound, 1 mg/mL human liver microsomes, 1 mM NADPH; for half-life at 1 μM: read-out: T½ of HLM
Experimental: The compound to be tested with final concentration of 1 μM was incubated with 1 mg/mL of human liver microsomes and 1 mM of NADPH, and a group without NADPH was set as a negative control. The reaction mixture was quenched with methanol at five time points of 0, 5, 15, 30 and 60 min, respectively, then centrifuged at 2500 rpm for 20 min to precipitate proteins, and the resulting supernatant was analyzed by LC-MS/MS. The data was analyzed and the k value and half-life T1/2 was calculated, T1/2(min)=0.693/k.
Wherein, compounds a, b and c are active compounds disclosed in patent No. ZL201610154581.3.

Row | microsomal CLint at 1 μM [3] [µL/min/mg] | half-life at 1 μM ([3]; human, human liver microsomes) [h] | SMILES | GI50 (K562 (leukemia)) [nM] | GI50 (PC-3 (prostate cancer)) [nM] | GI50 (OVCAR-3 (ovarian cancer)) [nM] | GI50 (786-0 (renal cancer)) [nM] | GI50 (LOX-IMVI (melanoma)) [nM] | GI50 (HCT116 (colon cancer)) [nM] | GI50 [1] [nM] | GI50 [2] [nM] | GI50 (HS 578T (breast cancer)) [nM] | half-life at 1 μM [3] [h] | microsomal CLint at 1 μM ([3]; human, human liver microsomes) [µL/min/mg]
1 | 6.8 | 1.7 | [2H]C([2H])([2H])Oc1cc(C(=O)Nc2cc3c(cc2Oc2cc(C)cc(C)c2)C(=O)N(C)[C@@H](CC(=O)N(C)OC)C(=O)N3)c(Cl)c(OC([2H])([2H])[2H])c1OC([2H])([2H])[2H] [Compound 36] | < 5 | < 5 | < 5 | 11.9 | < 5 | < 5 | 10 | < 5 | 8.5 | – | –
2 | 7.2 | 1.6 | [2H]C([2H])([2H])Oc1cc(C(=O)Nc2cc3c(cc2Oc2cc(C)cc(C)c2)C(=O)N[C@@H](CC(=O)N(OC([2H])([2H])[2H])C([2H])([2H])[2H])C(=O)N3)c(Cl)c(OC([2H])([2H])[2H])c1OC([2H])([2H])[2H] [Compound 38] | < 5 | < 5 | < 5 | 23 | 5.2 | 13 | 27 | < 5 | 21 | – | –
3 | 13.7 | 0.843 | [2H]C([2H])([2H])Oc1cc(C(=O)Nc2cc3c(cc2Oc2cc(C)cc(C)c2)C(=O)N(C)[C@@H](CC(=O)N(OC([2H])([2H])[2H])C([2H])([2H])[2H])C(=O)N3)c(Cl)c(OC([2H])([2H])[2H])c1OC([2H])([2H])[2H] [Compound 39] | < 5 | < 5 | < 5 | 9 | < 5 | 7 | 12 | < 5 | 6 | – | –

The next lines start with the compound.

Row | SMILES | microsomal CLint at 1 μM [3] [µL/min/mg] | half-life at 1 μM ([3]; human, human liver microsomes) [h] | GI50 (K562 (leukemia)) [nM] | GI50 (PC-3 (prostate cancer)) [nM] | GI50 (OVCAR-3 (ovarian cancer)) [nM] | GI50 (786-0 (renal cancer)) [nM] | GI50 (LOX-IMVI (melanoma)) [nM] | GI50 (HCT116 (colon cancer)) [nM] | GI50 [1] [nM] | GI50 [2] [nM] | GI50 (HS 578T (breast cancer)) [nM] | half-life at 1 μM [3] [h] | microsomal CLint at 1 μM ([3]; human, human liver microsomes) [µL/min/mg]
4 | [2H]C([2H])([2H])Oc1cc(C(=O)Nc2cc3c(cc2Oc2cc(C)cc(C)c2)C(=O)N(C)[C@@H](CC(=O)N(OC([2H])([2H])[2H])C([2H])([2H])[2H])C(=O)N3)c(Br)c(OC([2H])([2H])[2H])c1OC([2H])([2H])[2H] [Compound 34] | – | – | < 5 | < 5 | < 5 | < 5 | < 5 | < 5 | < 5 | < 5 | < 5 | 1.2 | 9.6
5 | [2H]C([2H])([2H])Oc1cc(C(=O)Nc2cc3c(cc2Oc2cc(C)cc(C)c2)C(=O)N[C@@H](CC(=O)N(C)OC)C(=O)N3)c(Cl)c(OC([2H])([2H])[2H])c1OC([2H])([2H])[2H] [Compound 35] | 11.7 | 0.987 | < 5 | < 5 | < 5 | 21.1 | 5.6 | 9.8 | 29 | < 5 | 16 | – | –
6 | [2H]C([2H])([2H])Oc1cc(C(=O)Nc2cc3c(cc2Oc2cc(C)cc(C)c2)C(=O)N[C@@H](CC(=O)N(OC([2H])([2H])[2H])C([2H])([2H])[2H])C(=O)N3)c(Br)c(OC([2H])([2H])[2H])c1OC([2H])([2H])[2H] [Compound 37] | 7.7 | 1.5 | < 5 | < 5 | < 5 | 8.6 | < 5 | < 5 | 12 | < 5 | < 5 | – | –
7 | [2H]C([2H])([2H])Oc1cc(C(=O)Nc2cc3c(cc2Oc2cc(C)cc(C)c2)C(=O)N[C@@H](CC(=O)N(C)OC([2H])([2H])[2H])C(=O)N3)c(Br)c(OC([2H])([2H])[2H])c1OC([2H])([2H])[2H] [Compound 40] | 9 | 1.28 | < 5 | < 5 | < 5 | < 5 | < 5 | < 5 | < 5 | < 5 | < 5 | – | –
